Results published in ChEMBL document CHEMBL4393680, “Design, synthesis and biological evaluation of novel thioquinazolinone-based 2-aminobenzamide derivatives as potent histone deacetylase (HDAC) inhibitors” (Eur J Med Chem, 2019).
The source made the active and inactive calls. No cut-off for these calls is given here.

Tests used:
SMMC-7721 [1] = test: Antiproliferative activity against human SMMC7721 cells assessed as reduction in cell growth incubated for 72 hrs by CCK-8 assay; type: functional, cell-based; conditions: SMMC-7721, 72 h
A-375 = test: Antiproliferative activity against human A375 cells assessed as reduction in cell growth at 2 uM incubated for 72 hrs by CCK-8 assay relative to control; type: functional; conditions: A-375, 72 h
A549 [2] = test: Antiproliferative activity against human A549 cells assessed as reduction in cell growth at 8 uM incubated for 72 hrs by CCK-8 assay relative to control; type: functional; conditions: A549, 72 h
A549 [3] = test: Antiproliferative activity against human A549 cells assessed as reduction in cell growth at 2 uM incubated for 72 hrs by CCK-8 assay relative to control; type: functional; conditions: A549, 72 h
SMMC-7721 [4] = test: Antiproliferative activity against human SMMC7721 cells assessed as reduction in cell growth at 2 uM incubated for 72 hrs by CCK-8 assay relative to control; type: functional; conditions: SMMC-7721, 72 h
A549 [5] = test: Antiproliferative activity against human A549 cells assessed as reduction in cell growth incubated for 72 hrs by CCK-8 assay; type: functional, cell-based; conditions: A549, 72 h
HCT-116 = test: Antiproliferative activity against human HCT116 cells assessed as reduction in cell growth incubated for 72 hrs by CCK-8 assay; type: functional, cell-based; conditions: HCT-116, 72 h
Histone deacetylase 1 = Histone deacetylase 1 (Homo sapiens, UniProt Q13547); test: Inhibition of human recombinant His-tagged HDAC1 (482 residues) expressed in baculovirus infected insect cells using FLUOR DE LYS SIRT1 as substrate incubated for 10 mins followed by substrate addition and measured after 30 mins by fluorescence method
Histone deacetylase 1, sequence (Q13547 whole entry): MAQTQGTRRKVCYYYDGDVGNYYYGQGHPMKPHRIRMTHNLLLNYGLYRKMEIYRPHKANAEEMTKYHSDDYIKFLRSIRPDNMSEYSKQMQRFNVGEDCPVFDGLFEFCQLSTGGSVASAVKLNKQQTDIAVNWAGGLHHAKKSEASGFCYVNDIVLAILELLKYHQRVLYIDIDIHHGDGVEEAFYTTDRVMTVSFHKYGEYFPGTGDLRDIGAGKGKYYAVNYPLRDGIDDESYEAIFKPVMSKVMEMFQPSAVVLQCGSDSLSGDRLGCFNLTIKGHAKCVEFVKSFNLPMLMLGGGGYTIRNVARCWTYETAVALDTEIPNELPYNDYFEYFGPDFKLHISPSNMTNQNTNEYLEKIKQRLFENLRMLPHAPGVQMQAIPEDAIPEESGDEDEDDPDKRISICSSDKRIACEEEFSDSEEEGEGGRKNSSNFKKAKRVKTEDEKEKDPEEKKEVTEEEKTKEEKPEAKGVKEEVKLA

Histone deacetylase 2 [6] = biological target: T1, Histone deacetylase 2 (Homo sapiens, UniProt Q92769); test: Inhibition of human recombinant His-tagged HDAC2 ([…]) expressed in baculovirus infected insect cells using FLUOR DE LYS Green as substrate preincubated for 10 mins followed by substrate addition and measured after 30 mins by fluorescence method
T1 sequence (Q92769 whole entry): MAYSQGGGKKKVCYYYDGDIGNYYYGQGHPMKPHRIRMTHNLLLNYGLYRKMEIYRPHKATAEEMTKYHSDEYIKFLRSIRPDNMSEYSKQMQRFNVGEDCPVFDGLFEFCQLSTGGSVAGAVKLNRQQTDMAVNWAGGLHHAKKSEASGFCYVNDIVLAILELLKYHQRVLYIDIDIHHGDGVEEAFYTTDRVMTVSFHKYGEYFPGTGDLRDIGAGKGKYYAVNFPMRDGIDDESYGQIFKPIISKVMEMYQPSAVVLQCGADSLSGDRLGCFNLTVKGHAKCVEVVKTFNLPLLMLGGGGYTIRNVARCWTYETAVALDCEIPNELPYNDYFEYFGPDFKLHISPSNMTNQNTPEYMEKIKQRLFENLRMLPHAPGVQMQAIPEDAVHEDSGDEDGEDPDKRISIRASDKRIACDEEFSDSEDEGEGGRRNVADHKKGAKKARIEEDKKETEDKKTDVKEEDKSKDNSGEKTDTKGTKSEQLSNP

SMMC-7721 [7] = test: Inhibition of colony formation in human SMMC7721 cells incubated for 10 days by crystal violet staining based assay; type: functional, cell-based
SMMC-7721 [8] = test: Cell cycle arrest in human SMMC7721 cells assessed as accumulation at G0/G1 phase at 0.25 uM incubated for 48 hrs by propidium iodide staining based flow cytometry (Rvb=77%); type: functional
SMMC-7721 [9] = test: Cell cycle arrest in human SMMC7721 cells assessed as accumulation at G2/M phase at 0.25 uM incubated for 48 hrs by propidium iodide staining based flow cytometry (Rvb=16.17%); type: functional
SMMC-7721 [10] = test: Cell cycle arrest in human SMMC7721 cells assessed as accumulation at G0/G1 phase at 1 uM incubated for 48 hrs by propidium iodide staining based flow cytometry (Rvb=77%); type: functional
SMMC-7721 [11] = test: Cell cycle arrest in human SMMC7721 cells assessed as accumulation at G2/M phase at 1 uM incubated for 48 hrs by propidium iodide staining based flow cytometry (Rvb=16.17%); type: functional
SMMC-7721 [12] = test: Cell cycle arrest in human SMMC7721 cells assessed as accumulation at G0/G1 phase at 4 uM incubated for 48 hrs by propidium iodide staining based flow cytometry (Rvb=77%); type: functional
SMMC-7721 [13] = test: Cell cycle arrest in human SMMC7721 cells assessed as accumulation at S phase at 4 uM incubated for 48 hrs by propidium iodide staining based flow cytometry (Rvb=6.83%); type: functional
SMMC-7721 [14] = test: Cell cycle arrest in human SMMC7721 cells assessed as accumulation at G2/M phase at 4 uM incubated for 48 hrs by propidium iodide staining based flow cytometry (Rvb=16.17%); type: functional
SMMC-7721 [15] = test: Induction of apoptosis in human SMMC7721 cells assessed as viable cells at 0.25 uM incubated for 48 hrs by Annexin-V-FITC/propidium iodide staining based flow cytometry (Rvb=93.5%); type: functional; conditions: SMMC-7721, 48 h, read-out: Activity
SMMC-7721 [16] = test: Induction of apoptosis in human SMMC7721 cells assessed as early apoptotic cells at 0.25 uM incubated for 48 hrs by Annexin-V-FITC/propidium iodide staining based flow cytometry (Rvb=2.88%); type: functional
SMMC-7721 [17] = test: Induction of apoptosis in human SMMC7721 cells assessed as late apoptotic cells at 0.25 uM incubated for 48 hrs by Annexin-V-FITC/propidium iodide staining based flow cytometry (Rvb=1.73%); type: functional
SMMC-7721 [18] = test: Induction of apoptosis in human SMMC7721 cells assessed as necrotic cells at 0.25 uM incubated for 48 hrs by Annexin-V-FITC/propidium iodide staining based flow cytometry (Rvb=1.88%); type: functional
SMMC-7721 [19] = test: Induction of apoptosis in human SMMC7721 cells assessed as viable cells at 1 uM incubated for 48 hrs by Annexin-V-FITC/propidium iodide staining based flow cytometry (Rvb=93.5%); type: functional; conditions: SMMC-7721, 48 h, read-out: Activity
SMMC-7721 [20] = test: Induction of apoptosis in human SMMC7721 cells assessed as early apoptotic cells at 1 uM incubated for 48 hrs by Annexin-V-FITC/propidium iodide staining based flow cytometry (Rvb=2.88%); type: functional
SMMC-7721 [21] = test: Induction of apoptosis in human SMMC7721 cells assessed as late apoptotic cells at 1 uM incubated for 48 hrs by Annexin-V-FITC/propidium iodide staining based flow cytometry (Rvb=1.73%); type: functional
SMMC-7721 [22] = test: Induction of apoptosis in human SMMC7721 cells assessed as viable cells at 4 uM incubated for 48 hrs by Annexin-V-FITC/propidium iodide staining based flow cytometry (Rvb=93.5%); type: functional; conditions: SMMC-7721, 48 h, read-out: Activity
SMMC-7721 [23] = test: Induction of apoptosis in human SMMC7721 cells assessed as early apoptotic cells at 4 uM incubated for 48 hrs by Annexin-V-FITC/propidium iodide staining based flow cytometry (Rvb=2.88%); type: functional
SMMC-7721 [24] = test: Induction of apoptosis in human SMMC7721 cells assessed as late apoptotic cells at 4 uM incubated for 48 hrs by Annexin-V-FITC/propidium iodide staining based flow cytometry (Rvb=1.73%); type: functional
SMMC-7721 [25] = test: Induction of apoptosis in human SMMC7721 cells assessed as necrotic cells at 4 uM incubated for 48 hrs by Annexin-V-FITC/propidium iodide staining based flow cytometry (Rvb=1.88%); type: functional
Histone deacetylase 2 [26] = biological target: T1, Histone deacetylase 2; test: Inhibition of HDAC2 in human SMMC7721 cells assessed as increase in H3K9 acetylation at 1uM incubated for 48 hrs by DAPI staining based confocal fluorescence microscopy; type: cell-based
NIH3T3 = test: Cytotoxicity against mouse NIH/3T3 cells assessed as reduction in cell viability after 48 hrs by CCK8 assay; type: cell-based; conditions: NIH3T3, 48 h
Histone deacetylase = test: Inhibition of HDAC in human HeLa cell nuclear extract using fluor-de-lys-green as substrate preincubated for 10 mins followed by substrate addition and measured after 30 mins by fluorescence assay; type: cell-based

Row | Compound | IC50 (SMMC-7721 [1]) [nM] | inhibition at 2 µM (A-375) [%] | inhibition at 8 µM (A549 [2]) [%] | inhibition at 2 µM (A549 [3]) [%] | inhibition at 2 µM (SMMC-7721 [4]) [%] | IC50 (A549 [5]) [nM] | IC50 (HCT-116) [nM] | IC50 (Histone deacetylase 1) [nM] | IC50 (Histone deacetylase 2 [6]) [nM] | inhibition (SMMC-7721 [7]) | Activity (SMMC-7721 [8]) [%] | Activity (SMMC-7721 [9]) [%] | Activity (SMMC-7721 [10]) [%] | Activity (SMMC-7721 [11]) [%] | Activity (SMMC-7721 [12]) [%] | Activity (SMMC-7721 [13]) [%] | Activity (SMMC-7721 [14]) [%] | viability at 0.25 µM (SMMC-7721 [15]) [%] | Activity (SMMC-7721 [16]) [%] | Activity (SMMC-7721 [17]) [%] | other results
1 | CCn1c(SCc2ccc(/C=C/C(=O)Nc3ccccc3N)cc2)nc2cc(OC)ccc2c1=O | 60 | 55 | 78.2 | 18.6 | 56.8 | 1760 | 1430 | 100 | 180 | Dose-dependent effect | 61.58 | 17.67 | 50.71 | 33.16 | 53.62 | 28.7 | 17.68 | 79.3 | 6.55 | 9.65 | Activity (SMMC-7721 [18]): 4.51%; viability at 1 µM (SMMC-7721 [19]): 45.8%; Activity (SMMC-7721 [20]): 16.4%; Activity (SMMC-7721 [21]): 28.8%; viability at 4 µM (SMMC-7721 [22]): 41.3%; Activity (SMMC-7721 [23]): 10.5%; Activity (SMMC-7721 [24]): 38.2%; Activity (SMMC-7721 [25]): 10%; inhibition (Histone deacetylase 2 [26]): Active; IC50 (NIH3T3): 4800 nM
2 | Cn1c(SCc2ccc(C(=O)Nc3ccccc3N)cc2)nc2cc(Br)ccc2c1=O | 5580 | 34.5 | 66.2 | 37.5 | 35.6 | 4600 | 1220 | 290 | 530 | Dose-dependent effect | 65.59 | 18.88 | 56.35 | 25.37 | 56.05 | 24.16 | 19.19 | 79.4 | 6.01 | 9.88 | Activity (SMMC-7721 [18]): 4.73%; viability at 1 µM (SMMC-7721 [19]): 49.5%; Activity (SMMC-7721 [20]): 3.12%; Activity (SMMC-7721 [21]): 33.8%; viability at 4 µM (SMMC-7721 [22]): 26.9%; Activity (SMMC-7721 [23]): 6.61%; Activity (SMMC-7721 [24]): 51.4%; Activity (SMMC-7721 [25]): 15.1%; inhibition (Histone deacetylase 2 [26]): Active; IC50 (NIH3T3): 4020 nM; IC50 (Histone deacetylase): 4940 nM
3 | COc1ccc2c(=O)n(C)c(SCc3ccc(C(=O)Nc4ccccc4N)cc3)nc2c1 | 30 | 52.2 | 82.8 | 38 | 68.8 | 3060 | 750 | 10 | 160 | Dose-dependent effect | 67.11 | 11.67 | 58.1 | 22.56 | 46.09 | 22.52 | 31.22 | 66 | 9.27 | 18.9 | Activity (SMMC-7721 [18]): 5.77%; viability at 1 µM (SMMC-7721 [19]): 32.3%; Activity (SMMC-7721 [20]): 11.6%; Activity (SMMC-7721 [21]): 45.4%; viability at 4 µM (SMMC-7721 [22]): 21.7%; Activity (SMMC-7721 [23]): 13%; Activity (SMMC-7721 [24]): 54.8%; Activity (SMMC-7721 [25]): 10.6%; inhibition (Histone deacetylase 2 [26]): Active; IC50 (NIH3T3): 2530 nM; IC50 (Histone deacetylase): 990 nM
4 | COc1ccc2c(=O)n(-c3ccccc3Cl)c(SCc3ccc(C(=O)Nc4ccccc4N)cc3)nc2c1 | 2160 | 41.8 | 80.6 | 52.5 | 50.4 | 6270 | 2380 | 380 | 610 | Dose-dependent effect | 48.75 | 31.29 | 34.49 | 37.07 | 27.52 | 45.18 | 27.3 | 68.3 | 15.9 | 13.1 | Activity (SMMC-7721 [18]): 2.7%; viability at 1 µM (SMMC-7721 [19]): 65.6%; Activity (SMMC-7721 [20]): 7.67%; Activity (SMMC-7721 [21]): 19.1%; viability at 4 µM (SMMC-7721 [22]): 65.8%; Activity (SMMC-7721 [23]): 5.54%; Activity (SMMC-7721 [24]): 20.4%; Activity (SMMC-7721 [25]): 8.28%; inhibition (Histone deacetylase 2 [26]): Active; IC50 (NIH3T3): 3390 nM; IC50 (Histone deacetylase): 830 nM
